Data from patent US8952024B2, “Herbicidal pyrimidone derivatives” (E I du Pont de Nemours and Company, priority 2009, dated 2015).

Legend:
Experiment in all cases: Test B pre-/postemergence plant response
Type in all cases: in vivo
[1] = tested on: Italian ryegrass (Lolium multiflorum); details: for Plant response rating, Ryegrass, Italian: Postemergence
Outline: (§1)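 Compound in solvent + surfactant applied pre-em (loam/sand) or post-em (plants 2–18 cm, peat medium); greenhouse hold 13–15 days; visual 0–100 control score.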

[2] = tested on: bermudagrass (Cynodon dactylon); details: for Plant response rating, Bermudagrass: Postemergence
Outline: as §1

[3] = tested on: cocklebur (Xanthium strumarium); details: for Plant response rating, Cocklebur: Postemergence
Outline: as §1

[4] = tested on: downy bromegrass (Bromus tectorum); details: for Plant response rating, Bromegrass, Downy: Postemergence
Outline: as §1

kochia (Kochia scoparia) = details: for Plant response rating, Kochia: Postemergence
Outline: as §1

[5] = tested on: large crabgrass (Digitaria sanguinalis); details: for Plant response rating, Crabgrass, Large: Postemergence
Outline: as §1

[6] = tested on: morningglory (Ipomoea coccinea); details: for Plant response rating, Morningglory: Postemergence
Outline: as §1

soybean (Glycine max) = details: for Plant response rating, Soybean: Postemergence
Outline: as §1

[7] = tested on: velvetleaf (Abutilon theophrasti); details: for Plant response rating, Velvetleaf: Postemergence
Outline: as §1

[8] = tested on: wheat (Triticum aestivum); details: for Plant response rating, Wheat: Postemergence
Outline: as §1

[9] = tested on: woolly cupgrass (Eriochloa villosa); details: for Plant response rating, Cupgrass, Woolly: Postemergence
Outline: as §1

[10] = tested on: yellow nutsedge (Cyperus esculentus); details: for Plant response rating, Nutsedge, Yellow: Postemergence
Outline: as §1

[11] = 62 g ai/ha, postemergence, 0 is no effect, 100 is complete control, 13 to 15 days
[12] = 31 g ai/ha, 0 to 100 scale (0 no effect, 100 complete control)
[13] = 125 g ai/ha, scale 0 to 100 (0 no effect, 100 complete control)
[14] = 250 g ai/ha, scale 0 to 100 (0 no effect, 100 complete control), 13 to 15 days

COCCCn1c(-c2cccc(Br)c2)ncc(C(=O)C2=C(O)CCCC2=O)c1=O [Compound 140]
Ryegrass, Italian plant response rating (0 to 100 scale) [1, 11]: 0
Plant response rating, Ryegrass, Italian [1, 12]: 0
Plant response rating, Ryegrass, Italian [1, 13]: 0
Plant response rating, Ryegrass, Italian [1, 14]: 5
Bermudagrass plant response rating (0 to 100 scale) [2, 11]: 75
Plant response rating, Bermudagrass [2, 12]: 60
Plant response rating, Bermudagrass [2, 13]: 85
Plant response rating, Bermudagrass [2, 14]: 90
Cocklebur plant response rating (0 to 100 scale) [3, 11]: 15
Plant response rating, Cocklebur [3, 12]: 0
Plant response rating, Cocklebur [3, 13]: 65
Plant response rating, Cocklebur [3, 14]: 95
Bromegrass, Downy plant response rating (0 to 100 scale) [4, 11]: 5
Plant response rating, Bromegrass, Downy [4, 12]: 0
Plant response rating, Bromegrass, Downy [4, 13]: 5
Plant response rating, Bromegrass, Downy [4, 14]: 20
Kochia plant response rating (0 to 100 scale) (kochia (Kochia scoparia); [11]): 10
Plant response rating, Kochia (kochia (Kochia scoparia); [12]): 0
Plant response rating, Kochia (kochia (Kochia scoparia); [13]): 10
Plant response rating, Kochia (kochia (Kochia scoparia); [14]): 35
Crabgrass, Large plant response rating (0 to 100 scale) [5, 11]: 65
Plant response rating, Crabgrass, Large [5, 12]: 50
Plant response rating, Crabgrass, Large [5, 13]: 80
Plant response rating, Crabgrass, Large [5, 14]: 90
Morningglory plant response rating (0 to 100 scale) [6, 11]: 60
Plant response rating, Morningglory [6, 12]: 0
Plant response rating, Morningglory [6, 13]: 65
Plant response rating, Morningglory [6, 14]: 65
Soybean plant response rating (0 to 100 scale) (soybean (Glycine max); [11]): 60
Plant response rating, Soybean (soybean (Glycine max); [12]): 10
Plant response rating, Soybean (soybean (Glycine max); [13]): 75
Plant response rating, Soybean (soybean (Glycine max); [14]): 80
Velvetleaf plant response rating (0 to 100 scale) [7, 11]: 65
Plant response rating, Velvetleaf [7, 12]: 50
Plant response rating, Velvetleaf [7, 13]: 80
Plant response rating, Velvetleaf [7, 14]: 85
Wheat plant response rating (0 to 100 scale) [8, 11]: 5
Plant response rating, Wheat [8, 12]: 5
Plant response rating, Wheat [8, 13]: 10
Plant response rating, Wheat [8, 14]: 15
Cupgrass, Woolly plant response rating (0 to 100 scale) [9, 11]: 50
Plant response rating, Cupgrass, Woolly [9, 12]: 50
Plant response rating, Cupgrass, Woolly [9, 13]: 65
Plant response rating, Cupgrass, Woolly [9, 14]: 65
Nutsedge, Yellow plant response rating (0 to 100 scale) [10, 11]: 45
Plant response rating, Nutsedge, Yellow [10, 12]: 10
Plant response rating, Nutsedge, Yellow [10, 13]: 65
Plant response rating, Nutsedge, Yellow [10, 14]: 75
